Target: Full length KDM2B (Homo sapiens (Human), UniProt Q8NHM5)
Experiment: KDM2B TR-FRET assay for determining inhibitor IC50
Type: biochemical
Conditions: TR-FRET (HTRF), biotin-H3K36me2 peptide substrate, 2-OG 0.3 μM or 6 μM
Text: KDM2B TR-FRET Assay for Determining Inhibitor IC50
The KDM2B TR-FRET Assay described above represents an additional embodiment of the invention.

Chain of Full length KDM2B (Q8NHM5 whole entry): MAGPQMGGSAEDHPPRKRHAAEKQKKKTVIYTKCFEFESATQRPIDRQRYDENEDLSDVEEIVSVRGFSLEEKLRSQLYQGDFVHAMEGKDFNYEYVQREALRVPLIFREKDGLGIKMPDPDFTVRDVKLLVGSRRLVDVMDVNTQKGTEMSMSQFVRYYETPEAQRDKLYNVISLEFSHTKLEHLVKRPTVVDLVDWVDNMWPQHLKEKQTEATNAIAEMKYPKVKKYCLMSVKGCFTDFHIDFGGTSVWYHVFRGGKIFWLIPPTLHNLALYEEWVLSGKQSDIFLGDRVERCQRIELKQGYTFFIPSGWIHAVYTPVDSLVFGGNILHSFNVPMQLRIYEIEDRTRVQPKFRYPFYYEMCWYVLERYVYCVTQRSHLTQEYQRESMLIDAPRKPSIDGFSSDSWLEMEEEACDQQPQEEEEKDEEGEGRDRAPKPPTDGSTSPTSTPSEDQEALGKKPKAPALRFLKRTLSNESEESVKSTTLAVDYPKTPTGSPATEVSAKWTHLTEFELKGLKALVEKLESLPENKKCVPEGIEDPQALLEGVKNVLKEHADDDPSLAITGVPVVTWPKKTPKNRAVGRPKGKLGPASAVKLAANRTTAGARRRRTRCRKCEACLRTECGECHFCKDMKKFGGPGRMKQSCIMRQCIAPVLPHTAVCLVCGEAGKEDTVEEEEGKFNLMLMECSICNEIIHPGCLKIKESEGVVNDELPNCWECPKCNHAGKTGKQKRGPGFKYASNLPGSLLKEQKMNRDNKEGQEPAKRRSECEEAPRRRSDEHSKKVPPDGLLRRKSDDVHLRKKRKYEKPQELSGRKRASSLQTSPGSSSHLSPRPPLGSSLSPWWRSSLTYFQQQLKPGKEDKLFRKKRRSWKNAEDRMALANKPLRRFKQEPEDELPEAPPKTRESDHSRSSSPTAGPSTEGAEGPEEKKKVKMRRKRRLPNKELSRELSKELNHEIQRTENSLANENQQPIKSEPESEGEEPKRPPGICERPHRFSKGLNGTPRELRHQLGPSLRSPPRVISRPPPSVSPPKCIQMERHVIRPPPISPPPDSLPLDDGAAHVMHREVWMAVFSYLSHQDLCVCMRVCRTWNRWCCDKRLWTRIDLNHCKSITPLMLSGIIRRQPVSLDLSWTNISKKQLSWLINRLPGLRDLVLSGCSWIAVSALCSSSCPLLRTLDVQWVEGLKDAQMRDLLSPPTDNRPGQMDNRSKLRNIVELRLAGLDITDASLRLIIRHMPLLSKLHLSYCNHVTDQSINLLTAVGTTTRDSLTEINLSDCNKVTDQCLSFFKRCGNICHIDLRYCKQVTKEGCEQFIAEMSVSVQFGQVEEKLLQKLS

Row | Compound | IC50 [nM]
1 | CC(=O)NCc1cc(C(=O)C2CCCN(CC3CC3)C2)cc2ccccc12 (stereo not shown) [Example 39, N-[[3-[1-(cyclopropylmethyl)piperidine-3-carbonyl]-1-naphthyl]methyl]acetamide] | 460
2 | CC[C@@H]1CCN(C2CCC2)C[C@H]1C(=O)c1ccc2c(CC#N)c(OC)ccc2c1 (stereo in doubt) [Example 183a, 2-(6-(1-cyclobutyl-4-ethylpiperidine-3-carbonyl)-2-methoxynaphthalen-1-yl)acetonitrile] | 55.2
3 | CCCN1CCCC(C(=O)c2ccc(C)c(C)c2)C1 (stereo not shown) [Example 106, (3,4-dimethylphenyl)-(1-propyl-3-piperidyl)methanone] | 247
4 | COc1ccc2cc(C(=O)C3CCCN(CC4CC4)C3)ccc2c1C (stereo not shown) [Example 49, [1-(cyclopropylmethyl)-3-piperidyl]-(6-methoxy-5-methyl-2-naphthyl)methanone] | 163
5 | CCCN1CCCC(C(=O)c2cccc(N(C)C)c2)C1 (stereo not shown) [Example 90, [3-(dimethylamino)phenyl]-(1-propyl-3-piperidyl)methanone] | 1600
6 | CCCN1CCCC(C(=O)c2cccc(Cl)c2)C1 (stereo not shown) [Example 92, (3-chlorophenyl)-(1-propyl-3-piperidyl)methanone] | 723
7 | COc1ccc2cc(C(=O)[C@H]3CN(CC4CC4)CC[C@H]3C)ccc2c1 (single isomer, unassigned) [Example 137c, (1-(cyclopropylmethyl)-4-methylpiperidin-3-yl)(6-methoxynaphthalen-2-yl)methanone] | 1100
8 | COc1cccc(C(=O)[C@H]2CCCN(CC3CC3)C2)c1 (stereo in doubt) [Example 109b, (1-(cyclopropylmethyl)piperidin-3-yl)(3-methoxyphenyl)methanone] | 1300
9 | CC[C@H]1CCN(C2CCC2)C[C@H]1C(=O)c1ccc2c(CC#N)c(OC)ccc2c1 (stereo in doubt) [Example 183d, 2-(6-(1-cyclobutyl-4-ethylpiperidine-3-carbonyl)-2-methoxynaphthalen-1-yl)acetonitrile] | 1.53
10 | CCCC1CCN(C2CCC2)CC1C(=O)c1ccc2cc(OC)ccc2c1 (single isomer, unassigned) [Example 140d, (1-cyclobutyl-4-propylpiperidin-3-yl)(6-methoxynaphthalen-2-yl)methanone] | 9.96
11 | COc1ccc2cc(C(=O)[C@H]3CN(CC4CC4)CC[C@@H]3C)ccc2c1 (single isomer, unassigned) [Example 137d, (1-(cyclopropylmethyl)-4-methylpiperidin-3-yl)(6-methoxynaphthalen-2-yl)methanone] | 3300
12 | CCCN1CCCC(C(=O)c2ccc(Cl)c(Cl)c2)C1 (stereo not shown) [Example 101, (3,4-dichlorophenyl)-(1-propyl-3-piperidyl)methanone] | 279
13 | CNC(=O)c1cc(C(=O)C2CCCN(CC3CC3)C2)cc2ccccc12 (stereo not shown) [Example 40, 3-[1-(cyclopropylmethyl)piperidine-3-carbonyl]-N-methyl-naphthalene-1-carboxamide] | 626
14 | COc1ccc2cc(C(=O)C3CN(CC4CC4)CCC3C(F)(F)F)ccc2c1 (single isomer, unassigned) [Example 138a, (1-(cyclopropylmethyl)-4-(trifluoromethyl)piperidin-3-yl)(6-methoxynaphthalen-2-yl)methanone] | 137
15 | COc1ccc2cc(C(=O)C3CN(CC4CC4)CCC3c3ccccc3)ccc2c1 (stereo not shown) [Example 145, (1-(cyclopropylmethyl)-4-phenylpiperidin-3-yl)(6-methoxynaphthalen-2-yl)methanone] | 312
16 | O=C(c1cc(CO)c2ccccc2c1)C1CCCN(CC2CC2)C1 (stereo not shown) [Example 35, [1-(cyclopropylmethyl)-3-piperidyl]-[4-(hydroxymethyl)-2-naphthyl]methanone] | 169
17 | COc1ccc2cc(C(=O)[C@H]3CN(C4CCC4)CC[C@H]3C(C)C)ccc2c1CC#N (stereo in doubt) [Example 186b, 2-(6-(1-cyclobutyl-4-isopropylpiperidine-3-carbonyl)-2-methoxynaphthalen-1-yl)acetonitrile] | 2.12
18 | COc1ccc2cc(C(=O)C3CCCN(C4CCOCC4)C3)ccc2c1 (stereo not shown) [Example 6, (6-methoxy-2-naphthyl)-(1-tetrahydropyran-4-yl-3-piperidyl)methanone] | 2600
19 | COc1ccc2cc(C(=O)[C@H]3CN(C4CCC4)CC[C@H]3C(C)C)ccc2c1 (single isomer, unassigned) [Example 143b, (1-cyclobutyl-4-isopropylpiperidin-3-yl)(6-methoxynaphthalen-2-yl)methanone] | 15.9

Row | Compound | IC50 [nM]
20 | COc1ccc2cc(C(=O)[C@H]3CCCN(CC4CC4)C3)ccc2c1 [Example 8, [(3S)-1-(cyclopropylmethyl)-3-piperidyl]-(6-methoxy-2-naphthyl)methanone] | 2700
21 | Cc1c(C#N)ccc2cc(C(=O)C3CCCN(C4CCC4)C3)ccc12 (stereo not shown) [Example 72, 6-(1-cyclobutylpiperidine-3-carbonyl)-1-methyl-2-naphthonitrile] | 87.5
22 | CCCN1CC[C@@H](C)[C@@H](C(=O)c2ccc3c(CC#N)c(OC)ccc3c2)C1 (stereo in doubt) [Example 181a, 2-(2-methoxy-6-(4-methyl-1-propylpiperidine-3-carbonyl)naphthalen-1-yl)acetonitrile] | 1300
23 | O=C(c1cnc2ccccc2c1)C1CCCN(CC2CC2)C1 (stereo not shown) [Example 125, (1-(cyclopropylmethyl)piperidin-3-yl)(quinolin-3-yl)methanone] | 489
24 | N#Cc1ccc2cc(C(=O)C3CCCN(CC4CC4)C3)ccc2c1 (stereo not shown) [Example 159, 6-(1-(cyclopropylmethyl)piperidine-3-carbonyl)-2-naphthonitrile] | 68.8
25 | O=C(c1cccc(Cl)c1)[C@@H]1CCCN(CC2CC2)C1 (stereo in doubt) [Example 118a, (3-chlorophenyl)(1-(cyclopropylmethyl)piperidin-3-yl)methanone] | 6800
26 | C[C@H]1CCN(C2CCC2)C[C@@H]1C(=O)c1ccc2cc(C#N)ccc2c1 (stereo in doubt) [Example 161a, 6-(1-cyclobutyl-4-methylpiperidine-3-carbonyl)-2-naphthonitrile] | 3000
27 | O=C(c1ccc(Cl)cc1)[C@@H]1CCCN(CC2CC2)C1 (stereo in doubt) [Example 116a, (4-chlorophenyl)(1-(cyclopropylmethyl)piperidin-3-yl)methanone] | 5800
28 | CCC1CCN(C2CCC2)CC1C(=O)c1ccc2cc(OC)ccc2c1 (single isomer, unassigned) [Example 142b, (1-cyclobutyl-4-ethylpiperidin-3-yl)(6-methoxynaphthalen-2-yl)methanone] | 349
29 | CCCN1CCCC(C(=O)c2ccc3c(c2)CCCC3)C1 (stereo not shown) [Example 107, (1-propyl-3-piperidyl)-tetralin-6-yl-methanone] | 99.8
30 | COc1ccc2cc(C(=O)C3CCCN(CC4CC4)C3)ccc2c1 (stereo not shown) [Example 77, [1-(cyclopropylmethyl)-3-piperidyl]-(6-methoxy-2-naphthyl)methanone] | 208
31 | COc1ccc2cc(C(=O)C3CCCN(CCF)C3)ccc2c1 (stereo not shown) [Example 79, [1-(2-fluoroethyl)-3-piperidyl]-(6-methoxy-2-naphthyl)methanone] | 1800
32 | C[C@@H]1CCN(C2CCCC2)C[C@H]1C(=O)c1ccc2cc(C#N)ccc2c1 (stereo in doubt) [Example 162b, 6-(1-cyclopentyl-4-methylpiperidine-3-carbonyl)-2-naphthonitrile] | 85.7
33 | COc1ccc2cc(C(=O)C3CCCN(C4CC(C#N)C4)C3)ccc2c1 (stereo not shown) [Example 65, 3-[3-(6-methoxynaphthalene-2-carbonyl)-1-piperidyl]cyclobutanecarbonitrite] | 309
34 | COc1ccc2cc(C(=O)[C@H]3CCCN(C4CCCC4)C3)ccc2c1 [Example 10, [(3S)-1-cyclopentyl-3-piperidyl]-(6-methoxy-2-naphthyl)methanone] | 56.6
35 | CCC[C@H]1CCN(C2CCC2)C[C@H]1C(=O)c1ccc2cc(OC)ccc2c1 (single isomer, unassigned) [Example 140c, (1-cyclobutyl-4-propylpiperidin-3-yl)(6-methoxynaphthalen-2-yl)methanone] | 5.48
36 | CCCN1CC[C@@H](C)[C@H](C(=O)c2ccc3cc(C#N)ccc3c2)C1 (stereo in doubt) [Example 163b, 6-(4-methyl-1-propylpiperidine-3-carbonyl)-2-naphthonitrile] | 45.4
37 | COc1ccc2cc(C(=O)C3CN(C4CCC4)CCN3Cc3ccc(C#N)cc3)ccc2c1 (stereo not shown) [Example 199, 4-[[4-cyclobutyl-2-(6-methoxynaphthalene-2-carbonyl)piperazin-1-yl]methyl]benzonitrile] | 30.9

— patent publication US10280149B2, “Therapeutic compounds and uses thereof” (GENENTECH, INC., priority 2015, dated 2019)
